Experimental data taken from ChEMBL document CHEMBL3797116, “Modification on the O-glucoside of Sergliflozin-A: A new strategy for SGLT2 inhibitor design” (Bioorg Med Chem Lett, 2016).

Experiments:
Rattus norvegicus [1] = test: In vivo hypoglycemic activity in Sprague-Dawley rat assessed as urinary […] glucose level per 200g of animal body weight measured for 0 to 4 hrs at 5 mL/kg, po (reference value: 0.26 +/- 0.04 mg); type: functional, Urine
Rattus norvegicus [2] = test: In vivo hypoglycemic activity in Sprague-Dawley rat assessed as urinary […] glucose level per 200g of animal body weight measured for 4 to 8 hrs at 5 mL/kg, po (reference value: 0.14 +/- 0.03 mg); type: functional, Urine
Rattus norvegicus [3] = test: In vivo hypoglycemic activity in Sprague-Dawley rat assessed as urinary […] glucose level per 200g of animal body weight measured for 8 to 12 hrs at 5 mL/kg, po (reference value: 0.21 +/- 0.01 mg); type: functional, Urine
Rattus norvegicus [4] = test: In vivo hypoglycemic activity in Sprague-Dawley rat assessed as urinary […] glucose level per 200g of animal body weight measured for 12 to 24 hrs at 5 mL/kg, po (reference value: 1.45 +/- 0.28 mg); type: functional, Urine
Rattus norvegicus [5] = test: In vivo hypoglycemic activity in Sprague-Dawley rat assessed as urinary […] glucose level per 200g of animal body weight measured for 0 to 24 hrs at 5 mL/kg, po (reference value: 2.03 +/- 0.34 mg); type: functional, Urine
[6] = Octanol-phosphate buffer saline partition coefficient, logP of the compound measured after 24 hrs by HPLC method; type: physicochemical
[7] = (§1) Metabolic stability in rat liver homogenate assessed as compound hydrolysis at 10 uM after 8 hrs; type: ADME, tissue-based; conditions: liver homogenate, read-out: Drug degradation
Rattus norvegicus [8] = test: In vivo hypoglycemic activity in Sprague-Dawley rat assessed as urinary […] glucose level per 200g of animal body weight measured for 0 to 6 hrs at 5 mL/kg, po; type: functional, Urine
Rattus norvegicus [9] = test: In vivo hypoglycemic activity in Sprague-Dawley rat assessed as urinary […] glucose level per 200g of animal body weight measured for 6 to 24 hrs at 5 mL/kg, po; type: functional, Urine
Rattus norvegicus [10] = test: In vivo hypoglycemic activity in Sprague-Dawley rat assessed as reduction in urinary […] glucose level per 200g of animal body weight measured for 0 to 24 hrs at 5 mL/kg, po; type: functional, Urine; parameters: scale not given: the % may be the effect or the level left
Liver = test: as §1; type: ADME, tissue-based; conditions: tissue homogenate, 8 h, 10 µM

In the case of COc1ccc(Cc2ccccc2O[C@@H]2O[C@H](CO)[C@@H](O)[C@H](O)[C@H]2O)cc1 [SERGLIFLOZIN A], the Activity (Rattus norvegicus [1]) is reported as 126.99 mg, the Activity (Rattus norvegicus [2]) is reported as 34.8 mg and the Activity (Rattus norvegicus [3]) is reported as 33.8 mg. It also gave an Activity (Rattus norvegicus [4]) of 39.44 mg, an Activity (Rattus norvegicus [5]) of 235.03 mg and a logP at 24 h [6] of 1.32.
COc1ccc(Cc2ccccc2O[C@@H]2O[C@H](CO)[C@@H](O)[C@H](O)[C@H]2OC)cc1 gave an Activity (Rattus norvegicus [1]) of 0.11 mg, an Activity (Rattus norvegicus [2]) of 0.03 mg and an Activity (Rattus norvegicus [3]) of 0.02 mg. For the same compound, the Activity (Rattus norvegicus [4]) was 0.11 mg and the Activity (Rattus norvegicus [5]) was 0.27 mg.
Cc1cc(=O)oc2cc(O[C@@H]3O[C@H](CO)[C@@H](O)[C@H](O)[C@H]3O)ccc12 showed a metabolised at 8 h, 10 µM [7] greater than 80%.
COc1ccc(Cc2ccccc2O[C@@H]2O[C@H](CF)[C@@H](O)[C@H](O)[C@H]2O)cc1 gave an Activity (Rattus norvegicus [1]) of 2.34 mg, an Activity (Rattus norvegicus [2]) of 1.03 mg and an Activity (Rattus norvegicus [3]) of 0.13 mg. The Activity (Rattus norvegicus [4]) was 1.02 mg and the Activity (Rattus norvegicus [5]) was 4.52 mg.
Work on COc1ccc(Cc2ccccc2O[C@@H]2O[C@H](CO)[C@@H](O)[C@H](O)[C@H]2F)cc1 yielded an Activity (Rattus norvegicus [5]) of 16 mg, an Activity (Rattus norvegicus [8]) of 4.9 mg and an Activity (Rattus norvegicus [9]) of 11 mg.
In the case of COC[C@H]1O[C@@H](Oc2ccccc2Cc2ccc(OC)cc2)[C@H](O)[C@@H](O)[C@@H]1O, the Activity (Rattus norvegicus [1]) is reported as 61.23 mg, the Activity (Rattus norvegicus [2]) is reported as 4.11 mg and the Activity (Rattus norvegicus [3]) is reported as 7.19 mg. The Activity (Rattus norvegicus [4]) was 0.76 mg, the Activity (Rattus norvegicus [5]) was 73.29 mg and the Activity (Rattus norvegicus [10]) was 31%.
In the case of COc1ccc(Cc2ccccc2O[C@@H]2O[C@H](CO)C[C@H](O)[C@H]2O)cc1, the Activity (Rattus norvegicus [1]) is reported as 8.21 mg, the Activity (Rattus norvegicus [2]) is reported as 0.68 mg and the Activity (Rattus norvegicus [3]) is reported as 0.42 mg. It also gave an Activity (Rattus norvegicus [4]) of 1.73 mg and an Activity (Rattus norvegicus [5]) of 11.05 mg.
With CO[C@H]1[C@H](O)[C@@H](O)[C@H](Oc2ccc3oc(=O)cc(C)c3c2)O[C@@H]1CO the Stability (Liver) was “Stable”.
Compound COc1ccc(Cc2ccccc2O[C@@H]2O[C@H](CO)[C@@H](O)[C@H](OC)[C@H]2O)cc1 has an Activity (Rattus norvegicus [1]) of 13.67 mg, an Activity (Rattus norvegicus [2]) of 4.11 mg and an Activity (Rattus norvegicus [3]) of 0.65 mg. It also gave an Activity (Rattus norvegicus [4]) of 0.24 mg and an Activity (Rattus norvegicus [5]) of 18.67 mg.
In the case of COc1ccc(Cc2ccccc2O[C@@H]2O[C@H](CO)[C@@H](OC)[C@H](O)[C@H]2O)cc1, the Activity (Rattus norvegicus [1]) is reported as 102.46 mg, the Activity (Rattus norvegicus [2]) is reported as 58.68 mg and the Activity (Rattus norvegicus [3]) is reported as 11.01 mg. The Activity (Rattus norvegicus [4]) was 0.78 mg, the Activity (Rattus norvegicus [5]) was 172.94 mg and the logP at 24 h [6] was 1.83. For the same compound, the Activity (Rattus norvegicus [10]) was 73%.
Work on COc1ccc(Cc2ccccc2O[C@@H]2O[C@H](CO)[C@@H](O)C[C@H]2O)cc1 yielded an Activity (Rattus norvegicus [1]) of 0.36 mg, an Activity (Rattus norvegicus [2]) of 0.23 mg and an Activity (Rattus norvegicus [3]) of 0.21 mg. For the same compound, the Activity (Rattus norvegicus [4]) was 0.44 mg and the Activity (Rattus norvegicus [5]) was 1.24 mg.
In the case of COc1ccc(Cc2ccccc2O[C@@H]2O[C@H](C)[C@@H](O)[C@H](O)[C@H]2O)cc1, the Activity (Rattus norvegicus [1]) is reported as 33.36 mg, the Activity (Rattus norvegicus [2]) is reported as 0.69 mg and the Activity (Rattus norvegicus [3]) is reported as 0.07 mg. For the same compound, the Activity (Rattus norvegicus [4]) was 0.8 mg and the Activity (Rattus norvegicus [5]) was 34.91 mg.
